Laboratory results reported in patent US9924721B2 (priority 2013, dated 2018).
Like-named read-outs stand apart in the source and are kept apart here. Marks after values point to notes of the source that are not given here.

Tests used:
Phytophthora infestans [1] = test: microbe, parasite or virus in culture; format: cell-based; details: for Eff. % (inhibition of fungal growth): 8 days incubation
Pythium ultimum = Pythium ultimum in vitro cell test; format: cell-based; details: 4 days incubation
Protocol: Pythium ultimum In Vitro Cell Test
• Solvent: DMSO • Culture medium: 14.6 g anhydrous D-glucose (VWR), 7.1 g Mycological Peptone (Oxoid), 1.4 g granulated Yeast Extract (Merck), QSP liter • Inoculum: mycelial suspension
Fungicides were solubilized in DMSO and the solution used to prepare the required range of concentrations. The final concentration of DMSO used in the assay was ≤1%.
Inoculum was prepared from a pre-culture of P. ultimum grown in liquid medium by homogenization using a blender. The concentration of ground mycelium in the inoculum was estimated and adjusted to the desired optical density (OD).
Fungicides were evaluated for their ability to inhibit mycelium growth in liquid culture assay. The compounds were added in the desired concentrations to culture medium containing the mycelial suspension. After 4 days of incubation, the fungicidal efficacy of compounds was determined by spectrometric measurement of mycelium growth. Inhibition of fungal growth was determined by comparing the absorbance values in wells containing the fungicides with the absorbance in control wells without fungicides.

Phytophthora infestans [2] = format: in vivo; details: tomatoes, spray, evaluated 3 days after inoculation
Plasmopara viticola = test: Plasmopara test (grapevines)/preventive; format: in vivo; details: spray, evaluated 6 days after inoculation
Protocol: Plasmopara Test (Grapevines)/Preventive
• Solvent: 24.5 parts by weight of acetone • 24.5 parts by weight of dimethylacetamide • Emulsifier: 1 part by weight of alkylaryl polyglycol ether
To produce a suitable preparation of active compound, 1 part by weight of active compound is mixed with the stated amounts of solvent and emulsifier, and the concentrate is diluted with water to the desired concentration.
To test for preventive activity, young plants are sprayed with the preparation of active compound at the stated rate of application. After the spray coating has dried on, the plants are inoculated with an aqueous spore suspension of Plasmopara viticola and then remain for 1 day in an incubation cabinet at approximately 20° C. and a relative atmospheric humidity of 100%. The plant is subsequently placed for 4 days in a greenhouse at approximately 21° C. and a relative atmospheric humidity of approximately 90%. The plants are then misted and placed for 1 day in an incubation cabinet.
The test is evaluated 6 days after the inoculation. 0% means an efficacy which corresponds to that of the untreated control, while an efficacy of 100% means that no disease is observed.

[3] = pH 2.7
physchem = details: pH 2.7
[4] = 0.25 μg/mL of active ingredient

| SMILES | Eff. % (inhibition of fungal growth) (Phytophthora infestans [1]; [4]) [%] | Eff. % (inhibition of fungal growth) (Pythium ultimum; of active ingredient) [%] | Eff. % (preventive efficacy) (Phytophthora infestans [2]; 100 ppm of active ingredient) [%] | Eff. % (preventive efficacy) (Plasmopara viticola; 100 ppm of active ingredient) [%] | Log P [3] | Eff. % (inhibition of fungal growth) (Phytophthora infestans [1]; 20 μg/mL of active ingredient) [%] | Eff. % (inhibition of fungal growth) (Pythium ultimum; 20 μg/mL of active ingredient) [%] | inhibition at 20 µg/mL (Phytophthora infestans [1]; Phytophthora infestans, 192 h, read-out: Eff. % (inhibition of fungal growth)) [%] | inhibition at 20 µg/mL (Pythium ultimum; Globisporangium ultimum, 96 h, 20 μg/mL of active ingredient, read-out: Eff. % (inhibition of fungal growth)) [%] | Eff. % (preventive efficacy) (Phytophthora infestans [2]; 1 ppm of active ingredient) [%] | Eff. % (preventive efficacy) (Plasmopara viticola; 1 ppm of active ingredient) [%] | chromatographic logP (physchem) |
| --- | --- | --- | --- | --- | --- | --- | --- | --- | --- | --- | --- | --- |
| C#CCOc1cccc(F)c1C1CC(c2csc(C3CCN(C(=O)C(C(=O)OCCOC)n4nc(C(F)F)cc4C(F)F)CC3)n2)=NO1 (centres unmarked) [Example I-02] | 100 | 96 | 96 | 100 | 3.37^[a] |  |  |  |  |  |  |  |
| CCOC(=O)C(C(=O)N1CCC(c2nc(C3=NOC(c4c(F)cccc4OS(C)(=O)=O)C3)cs2)CC1)n1nc(C(F)F)cc1C(F)F (centres unmarked) [Example I-03] |  |  | 95 | 98 | 3.29^[a] | 99 | 96 |  |  |  |  |  |
| COCCOC(=O)C(C(=O)N1CCC(c2nc(C3=NOC(c4ccccc4OS(C)(=O)=O)C3)cs2)CC1)n1nc(C(F)F)cc1C(F)F (centres unmarked) [Example I-05] | 100 |  | 96 | 95 | 3.14^[a] |  | 87 |  |  |  |  |  |
| CCOC(=O)C(C(=O)N1CCC(c2nc(C3=NOC(c4c(Cl)cccc4OS(C)(=O)=O)C3)cs2)CC1)n1nc(C(F)F)cc1C(F)F (centres unmarked) [Example I-08] |  |  | 95 | 98 | 3.50^[a] | 99 | 87 |  |  |  |  |  |
| C#CCOc1cccc(Cl)c1C1CC(c2csc(C3CCN(C(=O)C(C(=O)OCC)n4nc(C(F)F)cc4C(F)F)CC3)n2)=NO1 (centres unmarked) [Example I-16] |  |  | 98 | 95 | 3.82^[a] | 100 | 94 |  |  |  |  |  |
| C#CCOc1ccccc1C1CC(c2csc(C3CCN(C(=O)CC(=O)OCC)CC3)n2)=NO1 (centres unmarked) [Example I-41, ethyl 3-oxo-3-[4-(4-{5-[2-(prop-2-yn-1-yloxy)phenyl]-4,5-dihydro-1,2-oxazol-3-yl}-1,3-thiazol-2-yl)piperidin-1-yl]propanoate] |  |  |  |  |  |  |  | 100 | 99 | 94 | 91 | 2.7 |
| C#CCOc1cccc(F)c1C1CC(c2csc(C3CCN(C(=O)CC(=O)OCC)CC3)n2)=NO1 (centres unmarked) [Example I-42] |  |  |  |  | 2.58^[a] | 100 | 100 |  |  | 94 | 99 |  |
